# Assay results as given in article PMC3641313 (Korean Journal of Pediatrics, 2013).
# Tests used:
# [1] = system: influenza virus infection; details: treatment initiated within 48 hours of the onset of fever; cited from earlier work
# [2] = system: influenza; type: in vivo, pediatric patients; details: proven influenza patients group in the first study period and second study period
smiles,measurement,setting,value
CCOC(=O)C1=C[C@@H](OC(CC)CC)[C@H](NC(C)=O)[C@@H](N)C1 [Oseltamivir],average duration of fever after the initiation of oseltamivir treatment,[1],1.7 days
same,patients afebrile (<37.5℃) within one day,[1],44%
same,patients recovered within two days,[1],86%
same,"admission duration, Group A compared with group B",[2],significant shorter
same,"frequency in pneumonia, Group A compared with group B",[2],lesser frequency
